In one assay the test system is organoid A. As to the kind of experiment: Organoid cell viability / IC50. The format is cell-based. The following applies: for IC50: organoid A. The method, then: (§1) In embodiments organoids were created by embedding single cells in Matrigel on ice and seeding the cells in 48 well plates. After the Matrigel was polymerized for 10 minutes at 37° C. basal culture medium was overlaid containing at least one of the optimized growth factor combinations in FIG. 19.
(§2) ATAC-Seq tests were run to determine which pathways were up and down regulated in the presence of various drugs. […] The effectiveness of oxaliplatin 230, an FGFR1 inhibitor 231, along with oxaliplatin and an FGFR1 inhibitor 234 as cell killers was tested in the organoid as shown in FIG. 23. […] The cell killing potential of oxaliplatin 241, an oxytocin antagonist 243, along with oxaliplatin and an oxytocin antagonist 245 was tested as shown in FIG. 24.

In another assay the test system is organoid C. As to the kind of experiment: Organoid cell viability / IC50. In kind it is cell-based. The method, then:
as §1, §2

The next assay concerns organoid B. Put plainly: Organoid cell viability / IC50. In kind it is cell-based. The method, then:
as §1, §2

For another assay, the system named is CRC247. Put plainly: High-throughput drug screen, CellTiter-Glo cell viability. The format is cell-based, human. The following applies: CRC247 cell line; 1 μM; 72 hours. The method, then:
(§3) Unless otherwise noted all experiments were carried out using the following materials and methods which are here presented as examples and not limiting embodiments. All equivalent variants are contemplated as part of the presently disclosed subject matter. An Echo Acoustic Dispenser provided automated liquid handling for drug addition while cell plating was performed by a Thermo Fisher Well Mate and assays used a Clarioscan plate reader. The drugs assayed were stamped to the cell plates immediately prior to cell plating at a final concentration of 1 μM. The drug pre-coated plates were plated with 500-1000 cells/well. 72 hours after cell plating cell viabilities were assessed via a CellTiter-Glo Luminescent Cell Viability Assay.
(§4) In this embodiment matching cells lines 31 and PDXs are created 32. These can be developed as described in the Uronis and Kim papers previously incorporated by reference. Drugs may subsequently be screened using these cell lines 33 the results validated in vivo 34 and RNA-Seq and molecular analysis 35 used. As a non-limiting example, CRC057, CRC119, CRC240, CRC247 15-496, and 16-159 were derived from patient colorectal cancers. It should be understood by those of skill in the art that any suitable type of cancer sample may have been taken. High-throughput drug screens, including 119 FDA-approved drug compounds, were performed using the patient-derived cell lines. Any suitable type of high or low throughput drug screen of any FDA approved or non-FDA approved drug may be performed on the cell lines. […] 88%, 95%, 88, and 89% of CRC119 were killed by docetaxel 42, doxorubicin 41, and the vinca alkaloids vincristine and vinorelbine 43 respectively. 46%, 93%, 63% and 56% of CRC240 were killed by docetaxel 42, doxorubicin 41, and the vinca alkaloids vincristine and vinorelbine 43 respectively. 47% 83%, 46% and 46% of CRC057 were killed by docetaxel 42, doxorubicin 41, and the vinca alkaloids vincristine and vinorelbine 43 respectively. 25%, 70%, 37%, and 33% of CRC247 were killed by docetaxel 42, doxorubicin 41, and the vinca alkaloids vincristine and vinorelbine 43 respectively. […] CRC119 45 and 16-159 46 were sensitive to the standard of care cytotoxic chemotherapeutic agent irinotecan with 43% and 64% of cells killed respectively.
For orientation: In ATP-based viability assays light output follows the ATP content of the culture.

The next assay relates to CRC240. The assay is described as above. In kind it is cell-based, human. The following applies: CRC240 cell line; 1 μM; 72 hours. On the procedure:
as §3, §4

The next assay relates to CRC119. Described as above. The format is cell-based, human. The following applies: CRC119 cell line; 1 μM; 72 hours. The method, then: as §3, §4
Another assay relates to CRC057. The assay is described as above. The format is cell-based, human. The settings on record: CRC057 cell line; 1 μM; 72 hours. On the procedure:
as §3, §4

A further assay relates to 16-159. The assay is described as above. The format is cell-based, human. The settings on record: 16-159 cell line; 1 μM; 72 hours. The method, then: as §3, §4
The test system of the next assay is CRC119 PDX. Put plainly: PDX studies accompanying the organoid studies (tumor growth inhibition). In kind it is in vivo, mice. The following applies: 10 mg/kg oxaliplatin or 20 mg/kg irinotecan weekly IP for three weeks. An excerpt:
(§5) PDX studies accompanying the organoid studies were developed as described previously and in Uronis J M, Osada T, McCall S, Yang X Y, Mantyh C, Morse M A, et al. Histological and molecular evaluation of patient-derived colorectal cancer explants. PloS one 2012; 7:e38422, and Kim M K, Osada T, Barry W T, Yang X Y, Freedman J A, Tsamis K A, et al. Characterization of an oxaliplatin sensitivity predictor in a preclinical murine model of colorectal cancer. Molecular cancer therapeutics 2012; 11:1500-1509. Both of these references are hereby incorporated in their entirety. 6-8 week old NOD/SCID-beige mice were used and the tumors were measured twice a week as described above. Once tumors reached a size of 250 mm^3 mice were treated with either 10 mg/kg oxaliplatin or 20 mg/kg irinotecan weekly via IP (intraperitoneal injection) for three weeks with saline used as a control. PDX tumor sizes were recorded and one-way ANOVA analysis were carried out as described in the references above to determine TGI (tumor growth inhibition.
(§6) In embodiments, patients undergo biopsy of metastatic cancer, CT of the chest, abdomen and pelvis. In embodiments, drug sensitivity is tested within 7-10 days (or 2-3 days) of obtaining tissue. In embodiments, FIG. 12, organoids are prepared from a PDX biopsy 121 by collecting and digesting cells 122, seeding the cells in a 24 well plate 123, after incubation seeding cells from the 24 well plate in a 96 well plate 124 and screening drugs 125. […] Sensitivity to oxaliplatin at 100 nM, 1 μM, and 10 μM was tested on 8 organoids, CRC057, CRC119, CRC240, CRC16-159, CRC17-608, CRC18-347, CRC247 and CRC18-266, created using the above procedure. […] SN38 (7-ethyl-10-hydroxycamptothecin) was tested, rather than irinotecan, in organoids since irinotecan undergoes deesterification to SN-38 in vivo but not in vitro.

Another assay deals with CRC240 PDX. The assay is described as above. In kind it is in vivo, mice. The settings on record: 10 mg/kg oxaliplatin or 20 mg/kg irinotecan weekly IP for three weeks.
Text: as §5, §6

A further assay relates to CRC119 organoid. As to the kind of experiment: Organoid drug sensitivity assay (Cell Titer Glo). The format is cell-based, human. The following applies: SN38 tested rather than irinotecan in organoids. The method, then: (§7) In embodiments, organoids are prepared by mincing a […] tissue sample into <2 mm^3 pieces. Samples are then digested in 5 mL of DMEMF-12+Penicillin Streptomycin+Rock inhibitor Y-27632 along with 20 μL of 0.25% Trypsin/EDTA for an hour with manual inversion every 10 minutes. After being spun down at 1500 RPM the pellet is washed with 5 mL of 10% FBS. During each of 3 washes the material is pipetted slowly about fifteen times. After each wash supernatant is collected and passed through a 70 μm cell strainer. Collected washes are spun down for five minutes at 1500 RPM and the pellet mixed with a 4:1 mixture of Matrigel®/PBS and plated. After the Matrigel® solidifies 1 mL of media is added to each well.
(§8) Collected matrigel is spun for 7 minutes at 1500 RPM. The pellet is collected and resuspended in 300 μL of PBS. 50 μL of this mixture is then mixed with 50 μL of a 1:1 mixture of matrigel/PBS. 5 μL of this mixture is then added to the center of each well in a 96 well plate and the plate incubated until the matrigel solidifies. […] After 90 μL of media is added and the plate is incubated at 37° C. for 24 hours, 5 μL of the tested drug is added to each well. Example concentrations, such as 100 nM, 1 μM and 10 μM concentrations, may be tested in triplicate. After the plate is incubated at 37° C. for 48 hours, 40 μL of Cell Titer Glo for organoids is added to each well to determine drug sensitivity.
as §6

Another assay deals with CRC240 organoid. Put plainly: Organoid drug sensitivity assay (Cell Titer Glo). The format is cell-based, human. The following applies: SN38 tested rather than irinotecan in organoids. On the procedure: as §7, §8, §6
The next assay has as its system CRC057 PDX. As to the kind of experiment: PDX studies accompanying the organoid studies (tumor growth inhibition). In kind it is in vivo, mice. The following applies: 10 mg/kg oxaliplatin weekly IP for three weeks.
Text: as §5, §6

The test system of another assay is CRC16-159 PDX. The assay is described as above. The following applies: 10 mg/kg oxaliplatin weekly IP for three weeks. In kind it is in vivo, mice.
Text: as §5, §6

The next assay deals with 18-347 PDX. Described as above. The format is in vivo, mice. The settings on record: 10 mg/kg oxaliplatin weekly IP for three weeks.
Text: as §5, §6

The next assay deals with CRC057 organoid. As to the kind of experiment: Organoid drug sensitivity assay (Cell Titer Glo). The format is cell-based, human. On the procedure: as §7, §8, §6
The next assay deals with CRC16-159 organoid. Put plainly: Organoid drug sensitivity assay (Cell Titer Glo). In kind it is cell-based, human. On the procedure:
as §7, §8, §6

For a further assay, the system named is CRC18-347 organoid. Put plainly: Organoid drug sensitivity assay (Cell Titer Glo). The format is cell-based, human. The method, then: as §7, §8, §6

The IC50 is the concentration needed to halve the response being measured. As to `CCc1c2c(nc3ccc(O)cc13)-c1cc3c(c(=O)n1C2)COC(=O)[C@]3(O)CC` [SN38, 7-ethyl-10-hydroxycamptothecin], the IC50 came to 0.0116 µM in the assay with organoid A, 0.0326 µM in the assay on organoid C and 43.9 µM with organoid B.

Turning to `CC(=O)O[C@@]12CO[C@@H]1C[C@H](O)[C@@]1(C)C(=O)[C@H](O)C3=C(C)[C@@H](OC(=O)[C@H](O)[C@@H](NC(=O)OC(C)(C)C)c4ccccc4)C[C@@](O)([C@@H](OC(=O)c4ccccc4)[C@H]21)C3(C)C` [docetaxel], the cells killed was found to be 25% with CRC247, 46% with CRC240, 88% with CRC119 and 47% with CRC057.

For the compound `COc1cccc2c1C(=O)c1c(O)c3c(c(O)c1C2=O)C[C@@](O)(C(=O)CO)C[C@@H]3O[C@H]1C[C@H](N)[C@H](O)[C@H](C)O1` [doxorubicin], the cells killed was 70% in the assay on CRC247, 93% in the assay on CRC240, 95% with CRC119 and 83% in the assay with CRC057.

As for `O=c1[nH]cc(F)c(=O)[nH]1` [fluorouracil], the IC50 in the assay with organoid A is 3.96 µM; with organoid C, 0.125 µM; in the assay with organoid B it was 0.037 µM.

Take `CCc1c2c(nc3ccc(OC(=O)N4CCC(N5CCCCC5)CC4)cc13)-c1cc3c(c(=O)n1C2)COC(=O)[C@]3(O)CC` [irinotecan]: the figures for the cells killed with CRC119 and with 16-159 were 43% and 64%, respectively. Besides, the “PDX sensitivity” value in the assay on CRC119 PDX and in the assay with CRC240 PDX was “sensitive” each time. For the same compound, the “organoid sensitivity” value with CRC119 organoid and with CRC240 organoid was “sensitive” throughout.

In the case of `O=C1[O][Pt]2([NH][C@@H]3CCCC[C@H]3[NH]2)[O]C1=O` [oxaliplatin], the “organoid sensitivity” value in the assay on organoid A (Organoid A, from the IC50 data) is listed as “resistant”; in the assay on CRC119 organoid, “resistant”; in the assay with CRC240 organoid, “resistant”; in the assay on CRC057 organoid it was “sensitive”; with CRC16-159 organoid it was “resistant”; in the assay with CRC18-347 organoid (18-347 organoid), “sensitive”. The values for the IC50 with organoid A, with organoid C and with organoid B were 128 µM, 21.7 µM and 7.01 µM, respectively. In the assay with CRC057, this compound yielded a cells killed of 46%. Further, the “PDX sensitivity” value is given as “resistant” with CRC119 PDX; “resistant” with CRC240 PDX; “sensitive” with CRC057 PDX; “resistant” in the assay with CRC16-159 PDX; “sensitive” with 18-347 PDX. Also, the killing with CRC057 organoid (1 μM) is above 50%; in the assay on CRC18-347 organoid (CRC18-347 organoid, 1 μM), above 50%.

Take `CC[C@]1(O)C[C@H]2CN(CCc3c([nH]c4ccccc34)[C@@](C(=O)OC)(c3cc4c(cc3OC)N(C=O)[C@H]3[C@@](O)(C(=O)OC)[C@H](OC(C)=O)[C@]5(CC)C=CCN6CC[C@]43[C@@H]65)C2)C1` [vincristine]: the cells killed is 37% in the assay on CRC247, 63% in the assay on CRC240, 88% in the assay on CRC119 and 46% in the assay with CRC057.

As for `CCC1=C[C@@H]2CN(C1)Cc1c([nH]c3ccccc13)[C@@](C(=O)OC)(c1cc3c(cc1OC)N(C)[C@H]1[C@@](O)(C(=O)OC)[C@H](OC(C)=O)[C@]4(CC)C=CCN5CC[C@]31[C@@H]54)C2` [vinorelbine], the cells killed was 33% in the assay on CRC247, 56% in the assay on CRC240, 89% with CRC119 and 46% in the assay on CRC057.

(Values after patent US20250327791A1, “METHODS OF TREATMENT BASED ON PATIENT SPECIFIC CLINICAL TRIAL MODELS AND ASSOCIATED MODELS AND USES” (DUKE UNIVERSITY, priority 2017, published 2025).)
